Measured values published in patent US20230015539A1, “METHOD OF TREATMENT WITH KCNQ CHANNEL OPENERS” (Icahn School of Medicine at Mount Sinai, priority 2019, published 2023).
“Also recorded” adds a separate entry of the source.

What was measured:
P-glycoprotein = P-glycoprotein (Homo sapiens, UniProt P08183); settings: cited from earlier work
[1] = system: patients enduring stressful life situations; assay: Example 5: inducing resilience in patients enduring stressful life situations; format: in vivo, human; settings: 900 mg oral (300 mg TID) daily; example in present tense
[2] = human, in vivo; cited from earlier work
[3] = system: patients with major depressive disorder (MDD) or persistent depressive disorder (PDD); assay: Multi-center, double-blind, randomized, placebo-controlled clinical trial of ezogabine (clinical rating scales); format: in vivo, human
Description: The well-known Montgomery-Asberg Depression Rating Scale (MADRS) is employed to capture change in overall depressive severity. […] The primary clinical outcome is a MADRS subscale composed of items 7 and 8 from the MADRS that capture symptoms of reduced motivation, low energy, and loss of interest or pleasure, which are termed “MADRS”.
The Temporal Experience of Pleasure Scale (TEPS) is designed to capture the separate reward processing components of anticipation and consumption, mapping the PVS constructs of AM/reward expectancy and IRRA/SSRA, respectively.
The TEPS is an 18-item self-report measurement of anticipatory (10 items) and consummatory (eight items) components of anhedonia which consists of a series of statements that must be rated according to how accurate they are for the individual. The scale differentiates the role of anticipatory pleasure (‘wanting’) from consummatory pleasure (‘liking’). The TEPS-Anticipatory sub-scale is a validated measure of anticipation of reward (higher scores are better); the TEPS-Consummatory sub-scale is a validated measure of response to receipt of reward.
Two additional instruments include the Specific Loss of Interest and Pleasure Scale (SLIPS) and the Anticipatory and Consummatory Interpersonal Pleasure Scale (ACIPS) which offer additional unique features, including specificity for anhedonia in the context of depression, and a focus on social aspects of reward.
The Quick Inventory of Depressive Symptomatology-Self-Report (QIDS-SR) is a validated self-report of depression.
The CGI-S/I will provide an overall clinician-determined summary measure that takes into account all available information, including knowledge of the subject's history, psychosocial circumstances, symptoms, behavior, and the impact of the symptoms on the subject's ability to function. The CGI evaluates the severity of psychopathology from 1 to 7. The CGI-S is a widely administered clinician rated global measure of overall illness severity. Subjects are rated on a 1-7 scale where 1 corresponds to “Normal, Not at All Ill”, 2 is “Borderline Mentally Ill”, the anchor for 3 is “Mildly Ill”, the anchor for 4 is “Moderately Ill”, 5 is “Markedly Ill”, 6 is “Severely Ill”, and 7 is “Among the Most Extremely Ill Patients”. It will be administered at all subject visits. The CGI-I is a widely administered clinician rated global measure of the degree of improvement from the initial assessment in subject overall illness severity. […] It will be administered at all subject visits.
The study procedures were conducted at the Icahn School of Medicine at Mount Sinai in New York City and at Baylor College of Medicine in Houston, Tex. Participants were between the ages of 18 and 65 and meet DSM-V criteria for major depressive disorder (MDD) or persistent depressive disorder (PDD, a chronic form of depression), as assessed by a trained rater using the Structured Clinical Interview for Diagnostic and Statistical Manual of Mental Disorders-Fifth Edition Text Revision (DSM-V-TR) Axis I Disorders, Patient Edition (SCID-I/P).
Following screening (Day −28 to Day −2), screening data was reviewed by the site PI to determine subject eligibility. Subjects who met all inclusion criteria and none of the exclusion criteria entered into the study. All eligible participants returned to the clinics to complete the baseline assessments and undergo randomization (Day 0, Baseline). Baseline assessments included clinical evaluations, the PRT and fMRI scanning (details below). […] Randomization was balanced by using randomly permuted blocks and stratified by center. A computer-generated randomization scheme developed by the coordinating site assigned a unique treatment code, which dictated the treatment assignment and matching study drug kit for each subject. The randomization list was provided by the research pharmacist at the coordinating site to the research pharmacist at the collaboration site.

[4] = system: patients diagnosed with PTSD; assay: Example 4: treatment of patients with PTSD; format: in vivo, human; settings: 900 mg oral (300 mg TID) daily; example in present tense
ventral striatum (VS) = assay: fMRI during the Incentive Flanker Task: activation to reward anticipation; format: in vivo, human; settings: baseline to primary outcome visit; ezogabine compared to placebo; n=40
Description: Following screening (Day −28 to Day −2), screening data was reviewed by the site PI to determine subject eligibility. Subjects who met all inclusion criteria and none of the exclusion criteria entered into the study. All eligible participants returned to the clinics to complete the baseline assessments and undergo randomization (Day 0, Baseline). Baseline assessments included clinical evaluations, the PRT and fMRI scanning (details below). […] Randomization was balanced by using randomly permuted blocks and stratified by center. […]
At each visit, participants completed self-report and clinician-administered rating scales performed by trained raters, and met with a study psychiatrist who assessed suicidal thinking or behavior, adverse events (AE), and changes in concomitant medications. […]
The primary outcome measure of the study was a change in activation within the bilateral ventral striatum (VS, FIG. 1) from baseline (Study Visit 0) to the primary outcome visit (Study Visit 5) as measured by functional magnetic resonance imaging (fMRI) during the Incentive Flanker Task (IFT), a variant of the monetary incentive delay task (MID) as described above. […] Additional secondary outcome included change in behavioral symptoms of anhedonia through a computer-based task, the Probabilistic Reward Task (PRT), and global illness improvement and severity evaluated through changes in CGI-I and CGI-S scores. […]

[5] = system: patients diagnosed with an anxiety disorder; assay: Example 3: treatment of patients with an anxiety disorder; settings: 900 mg oral (300 mg TID); example in present tense
[6] = system: patients with treatment resistant depression (TRD); assay: Sub-group analysis of the clinical trial: patients with treatment resistant depression (TRD), MADRS
Description: Treatment resistance is defined as at least one probable treatment failure as captured and by the Antidepressant Treatment form (AHTF).

Sequence of P-glycoprotein (P08183 whole entry): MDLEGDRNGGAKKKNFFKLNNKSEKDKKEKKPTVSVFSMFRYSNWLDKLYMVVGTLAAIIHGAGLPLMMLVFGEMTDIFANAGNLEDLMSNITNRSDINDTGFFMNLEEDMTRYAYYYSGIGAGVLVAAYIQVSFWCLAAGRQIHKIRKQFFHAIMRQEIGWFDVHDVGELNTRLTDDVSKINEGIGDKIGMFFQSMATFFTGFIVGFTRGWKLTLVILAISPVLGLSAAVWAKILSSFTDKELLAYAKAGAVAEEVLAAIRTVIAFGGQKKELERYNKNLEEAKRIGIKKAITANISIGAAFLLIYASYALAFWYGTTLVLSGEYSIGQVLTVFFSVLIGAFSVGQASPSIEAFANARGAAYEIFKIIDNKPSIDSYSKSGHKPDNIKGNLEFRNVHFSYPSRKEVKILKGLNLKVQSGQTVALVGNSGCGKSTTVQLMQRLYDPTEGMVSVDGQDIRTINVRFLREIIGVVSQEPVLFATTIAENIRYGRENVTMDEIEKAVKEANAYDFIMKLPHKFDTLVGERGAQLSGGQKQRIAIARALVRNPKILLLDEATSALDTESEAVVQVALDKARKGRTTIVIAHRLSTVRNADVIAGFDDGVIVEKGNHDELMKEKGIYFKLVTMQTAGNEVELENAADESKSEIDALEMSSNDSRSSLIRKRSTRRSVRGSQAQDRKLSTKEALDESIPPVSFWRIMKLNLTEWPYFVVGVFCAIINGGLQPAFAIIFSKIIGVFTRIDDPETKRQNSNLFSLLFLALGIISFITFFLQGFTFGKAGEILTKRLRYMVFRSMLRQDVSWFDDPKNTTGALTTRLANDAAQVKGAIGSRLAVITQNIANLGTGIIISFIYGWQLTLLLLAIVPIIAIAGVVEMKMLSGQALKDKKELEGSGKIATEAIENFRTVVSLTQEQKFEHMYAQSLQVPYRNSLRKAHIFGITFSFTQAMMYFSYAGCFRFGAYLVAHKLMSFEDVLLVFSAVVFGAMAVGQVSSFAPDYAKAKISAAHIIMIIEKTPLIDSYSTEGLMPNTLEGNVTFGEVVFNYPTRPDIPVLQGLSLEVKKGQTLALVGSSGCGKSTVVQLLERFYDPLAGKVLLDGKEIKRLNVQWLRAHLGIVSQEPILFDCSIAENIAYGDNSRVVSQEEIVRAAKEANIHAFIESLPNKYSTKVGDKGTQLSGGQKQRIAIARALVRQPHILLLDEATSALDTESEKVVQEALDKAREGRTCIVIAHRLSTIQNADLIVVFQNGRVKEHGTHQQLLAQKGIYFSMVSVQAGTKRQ

CCOC(=O)Nc1ccc(NCc2ccc(F)cc2)cc1N [ezogabine, N-[2-amino-4-(4-fluorobenzylamino)-phenyl] carbamic acid ethyl ester]
P-glycoprotein active transport (P-glycoprotein): not subject to P-glycoprotein active transport | resilience: managing emotional health and wellness [1]: better at managing their emotional health and wellness | median time to maximum plasma concentration (Tmax) [2]: 30 to 120 min | metabolism [2]: extensively metabolized primarily via glucuronidation and acetylation | SHAPS scores, Estimate (ezogabine compared to placebo) ([3]; anhedonia, n=45, p<0.0001): −1.55 | mean change from baseline in MADRS score ([3]; at the primary outcome visit, ezogabine up to 900 mg/day oral): 5.9±8.8 points | SHAPS, Cohen's d ([3]; ezogabine compared to placebo, medium effect size): 0.6 | MADRS, Cohen's d ([3]; ezogabine compared to placebo, n=45): 0.7 | TEPS anticipatory subscale (TEPS-ant), Estimate ([3]; ezogabine compared to placebo, n=45, p=0.0008): 1.33 | ACIPS, Estimate ([3]; ezogabine compared to placebo, p=0.0002): 2.77 | SLIPS, Estimate ([3]; ezogabine compared to placebo, p=0.0009): −1.78 | TEPS consummatory subscale (TEPS-con), Estimate ([3]; ezogabine compared to placebo, p=0.05): 0.64 | effect on anhedonia symptoms ([3]; human patients with depression and anhedonia, 300 mg TID oral, 5 weeks, SHAPS): successfully treated patients suffering from anhedonia; also recorded: reduction in anhedonia and related symptoms | PTSD symptoms [4]: alleviated after treatment | change in activation to reward anticipation within ventral striatum (fMRI) (ventral striatum (VS)): increased response to reward in the brain | symptoms of anxiety [5]: rapid and sustained alleviation of their symptoms of anxiety | difference in MADRS change (V5 vs V0): TRD versus non-TRD patients ([6]; TRD ezogabine, non-TRD ezogabine and placebo groups, p=0.015): even larger benefit of treatment compared to placebo in the TRD patients than in the non-TRD patients | onset of improvement in MADRS scores, ezogabine TRD group ([6]; TRD patients, change over time): significant improvement after a single treatment | effect of treatment on MADRS in patients with TRD ([6]; TRD patients, ezogabine 900 mg/day vs placebo, ANOVA p=0.024): greatest improvement in their MADRS scores; also recorded: significant effect of treatment; also recorded: beneficial effects compared to placebo
